The test system of series [1] is paw twitch. The series can be described thus: Twitch depression (muscle relaxant effect) in anesthetized dogs; dog paw twitch. It is filed as in vivo, mongrel dogs. To be noted: Table V; for ED90: Canis lupus familiaris, iv, read-out: Equi-efficacious dose; for ED90 / Equi-efficacious dose: dog paw twitch; for Duration (DURAT.) / Onset / Recovery (RECOV.): dog, at equi-efficacious dose. Here is the method:
(§1) Mongrel dogs were injected with 50 mg/kg of pentobarbital until the onset of anesthesia as determined by the eyeblink reflex test. The injectable solutions prepared above were administered intravenously to the anesthesized mongrel dogs and measurements were made of the muscle relaxant effect including maximum twitch depression, onset, duration and recovery time in a clinically known manner. Each of the subjects were compared with a control animal receiving an injection of distilled water.

Series [2] deals with paw twitch. The series can be described thus: Twitch depression (muscle relaxant effect) in anesthetized rabbits; rabbit paw twitch. Format: in vivo, New Zealand White rabbits. Particulars: Table IV; for ED90: Oryctolagus cuniculus, read-out: Equi-efficacious dose; for ED90 / Equi-efficacious dose: rabbit paw twitch; for Duration (DURAT.) / Onset / Recovery (RECOV.): rabbit, at equi-efficacious dose. Here is the method:
[The procedure below names another organism; the source lists this organism under the same test.] as §1
The same compound of the present invention as in
A number of compounds in accordance with the present invention were tested for their neuromuscular blockade Properties. Specifically, the acid addition salts of the compounds were dissolved in sterile water for injection.

The nature of series [3]: Cardiovascular change (HR, BP) at equi-efficacious dose in rabbits. Particulars: rabbit. Format: in vivo.
Series [4] can be described thus: Cardiovascular change (HR, BP) at equi-efficacious dose in dogs. Format: in vivo. To be noted: dog.
The next series concerns neuromuscular blockade. Particulars: background, in words; cited from earlier work.
[5] abbreviates: Table IV, at equi-efficacious dose.
[6] abbreviates: Table V, at equi-efficacious dose.
The mark [7] stands for this setting: depolarizer, based on twitch recovery not to-f.

The text below walks through data of patent publication US4863918A, “Enamine quaternary compounds, methods of making and their use as muscle relaxants” (BOC, Inc., priority 1988, dated 1989).

Molecules are shown by their SMILES.

As to `COc1cc2c(cc1OC)C(Cc1cc(OC)c(OC)c(OC)c1)[N+](C)(CCCOC(=O)CCC=CCCC(=O)OCCC[N+]1(C)CCc3cc(OC)c(OC)cc3C1Cc1cc(OC)c(OC)c(OC)c1)CC2` (stereo not drawn) [BW1090], in the series with paw twitch [1], the ED90 is 0.39 mg/kg, the “Duration (DURAT.)” value was 75.0 min, the Onset worked out at 195.5 s and the “Recovery (RECOV.)” value stood at 70.3 min. Moreover, in the series on paw twitch [2], the ED90 came to 0.504 mg/kg, the “Duration (DURAT.)” value is 8.7 min, the Onset turned out to be 48.5 s and the “Recovery (RECOV.)” value is 7.3 min. In series [3] (setting [5]), the BP % came out at 1.2% and the HR % is reported as -0.4%. Also, in series [4] (setting [6]), the BP % is recorded as -3.1% and the HR % came to 0.7%.

Take `C[C@]12CC[C@@H]([N+]3(C)CCCC3)C[C@@H]1CC[C@@H]1[C@@H]2CC[C@@]2(C)[C@H]1CCC[N+]2(C)C.[Br-].[Br-]` [RGH-4201]: in the series with paw twitch [1], the Equi-efficacious dose is 0.077 mg/kg, the “Duration (DURAT.)” value amounted to 28.3 min, the Onset amounted to 123.6 s and the “Recovery (RECOV.)” value was 22.0 min. Also, in the series with paw twitch [2], the Equi-efficacious dose worked out at 0.070 mg/kg, the “Duration (DURAT.)” value came out at 7.7 min, the Onset stood at 35.4 s and the “Recovery (RECOV.)” value was 6.1 min. For the same molecule, in series [3] (in vivo), the BP % was 2.6% and the HR % turned out to be 0.3%. Further, in series [4] (in vivo), the BP % amounted to 1.4% and the HR % is reported as 11.3%.

`COc1ccc(CC2c3cc(OC)c(OC)cc3CC[N+]2(C)CCC(=O)OCCCCCOC(=O)CC[N+]2(C)CCc3cc(OC)c(OC)cc3C2Cc2ccc(OC)c(OC)c2)cc1OC` (stereo not drawn) [atracurium]: in the series on paw twitch [1], the ED90 turned out to be 0.086 mg/kg, the “Duration (DURAT.)” value is 27.9 min, the Onset is 159.4 s and the “Recovery (RECOV.)” value is 20.4 min. In addition, in the series with paw twitch [2], the ED90 came to 0.046 mg/kg, the “Duration (DURAT.)” value came out at 14.3 min, the Onset stood at 126.9 s and the “Recovery (RECOV.)” value worked out at 12.2 min. In series [3] (in vivo), the BP % is given as -3.4% and the HR % is -1.0%. In series [4] (in vivo), the BP % stood at 0.3% and the HR % was 3.3%.

Take `COc1cc2c3cc1Oc1cc(ccc1O)C[C@@H]1c4c(cc(OC)c(O)c4Oc4ccc(cc4)C[C@@H]3N(C)CC2)CC[N+]1(C)C` [d-tubocurarine]: in the series on paw twitch [1], the Equi-efficacious dose was 0.254 mg/kg, the “Duration (DURAT.)” value was found to be 60.0 min, the Onset amounted to 150.8 s and the “Recovery (RECOV.)” value was found to be 55.3 min. For the same molecule, in the series on paw twitch [2], the Equi-efficacious dose stood at 0.229 mg/kg, the “Duration (DURAT.)” value was determined as 37.3 min, the Onset was found to be 85.0 s and the “Recovery (RECOV.)” value came out at 34.8 min. Besides, in series [3] (setting [5]), the BP % is recorded as 4.8% and the HR % is -0.3%. In series [4] (setting [6]), the BP % is on record as -25.8% and the HR % is given as 8.7%. Also, the “duration of paralysis and recovery” value with neuromuscular blockade was “maintain paralysis for an undesirably long time and the recovery period is slow”.

Regarding `CC(=O)O[C@H]1C[C@@H]2CC[C@@H]3[C@H](CC[C@@]4(C)[C@H]3C[C@H]([N+]3(C)CCCCC3)[C@@H]4OC(C)=O)[C@@]2(C)C[C@@H]1[N+]1(C)CCCCC1` [pancuronium], in the series on paw twitch [1], the ED90 amounted to 0.013 mg/kg, the “Duration (DURAT.)” value stood at 45.7 min, the Onset worked out at 169.0 s and the “Recovery (RECOV.)” value was determined as 35.6 min. For the same molecule, in the series with paw twitch [2], the ED90 amounted to 0.022 mg/kg, the “Duration (DURAT.)” value is 32.5 min, the Onset stood at 147.5 s and the “Recovery (RECOV.)” value was 17.4 min. In series [3] (setting [5]), the BP % is reported as 2.7% and the HR % turned out to be 0.0%. In series [4] (setting [6]), the BP % is on record as -1.8% and the HR % is given as 0.2%. The “duration of paralysis and recovery” value in the series with neuromuscular blockade is “maintain paralysis for an undesirably long time and the recovery period is slow”.

Take `C[N+](C)(C)CCOC(=O)CCC(=O)OCC[N+](C)(C)C` [succinylcholine]: the figures for the ED90 in the series with paw twitch [1] and in the series on paw twitch [2] were 0.043 mg/kg and 0.447 mg/kg, respectively. In addition, the Onset with paw twitch [1] was determined as 98.9 s; in the series on paw twitch [2], 39.4 s. The “Duration (DURAT.)” value in the series on paw twitch [1] (setting [7]) was determined as 8.8 min; in the series with paw twitch [2] (setting [7]), 18.6 min. Further, the “Recovery (RECOV.)” value in the series with paw twitch [1] (setting [7]) came to 5.4 min; with paw twitch [2] (setting [7]) it was 18.6 min. Also, the values for the BP % in series [3] (setting [5]) and in series [4] (setting [6]) were -4.1% and 25.7%, respectively. For the same molecule, the HR % in series [3] (setting [5]) is listed as 0.2%; in series [4] (setting [6]), 34.9%. For the same molecule, the “reversibility by anticholinesterase drugs” value with neuromuscular blockade was “not easily reversed by anticholinesterase drugs”.

As for `CC(=O)O[C@H]1C[C@@H]2CC[C@@H]3[C@H](CC[C@@]4(C)[C@H]3C[C@H]([N+]3(C)CCCCC3)[C@@H]4OC(C)=O)[C@@]2(C)C[C@@H]1N1CCCCC1` [vecuronium], in the series with paw twitch [1], the ED90 turned out to be 0.019 mg/kg, the “Duration (DURAT.)” value amounted to 26.6 min, the Onset turned out to be 171.0 s and the “Recovery (RECOV.)” value was 21.8 min. In addition, in the series on paw twitch [2], the ED90 turned out to be 0.019 mg/kg, the “Duration (DURAT.)” value was 16.8 min, the Onset worked out at 97.3 s and the “Recovery (RECOV.)” value was 9.6 min. Besides, in series [3] (setting [5]), the BP % is listed as 1.1% and the HR % is recorded as -1.9%. Moreover, in series [4] (setting [6]), the BP % is reported as 2.3% and the HR % came out at 3.5%.
